Structures are written as SMILES.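 Cells were grown in 96-well plates and exposed to each compound for 48 hours at five concentrations; endpoints were interpolated linearly between bracketing concentrations, or set to the highest concentration if not reached. GI50 = concentration required for 50% inhibition of growth.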 Active and inactive are the calls of the source. Cut-off read from the data, not from the text of the source: active = GI50 up to about 1.1 µM and inactive = higher.

Test systems include 786-0; A498; HL-60; HOP-92; HT-29; Hs-578T; IGROV-1; M14; MCF7; MDA-MB-231; Malme-3M; NCI-H460; NCI/ADR-RES; RXF 393; SF-295; SK-MEL-28; SNB-75; UACC-257; CCRF-CEM.
Holding throughout (experiment): NCI anticancer screen, dose series, 48 h

Take `COc1ccc(S(=O)(=O)Nc2ccc(-c3csc(N4C(=O)/C(=C/c5ccccc5[N+](=O)[O-])N=C4c4ccccc4)n3)cc2)cc1Cl`: the GI50 in the experiment on 786-0 was > 100 µM (inactive); in the experiment with A498, 23.8 µM (inactive); in the experiment with HL-60, 23.2 µM (inactive); in the experiment with HOP-92, 23.3 µM (inactive); in the experiment on HT-29 it was > 100 µM (inactive); with Hs-578T it was 40.4 µM (inactive). Also, the GI50 with IGROV-1 was 16.1 µM (inactive); in the experiment with M14, 24.4 µM (inactive); in the experiment with MCF7, 66.8 µM (inactive); in the experiment on MDA-MB-231, 20.3 µM (inactive); in the experiment with Malme-3M, 58.9 µM (inactive); in the experiment with NCI-H460 it was 40.8 µM (inactive). Moreover, the GI50 with NCI/ADR-RES is 86.1 µM (inactive); in the experiment with RXF 393 it was 50.8 µM (inactive); in the experiment on SF-295 it was 47 µM (inactive); with SK-MEL-28, 98.2 µM (inactive); with SNB-75, > 100 µM (inactive); in the experiment on UACC-257, 38.6 µM (inactive).
For the compound `S=C1c2ccccc2N=C(NC2CCCC2)C2CSCN12` (centres undefined), the GI50 is > 100 µM (inactive) with 786-0; 88.9 µM (inactive) in the experiment with A498; 32 µM (inactive) in the experiment on CCRF-CEM; 48.5 µM (inactive) in the experiment with HT-29; 44.4 µM (inactive) in the experiment with Hs-578T; > 100 µM (inactive) in the experiment with IGROV-1. Also, the GI50 in the experiment with M14 was 91.8 µM (inactive); in the experiment with MCF7, 67.6 µM (inactive); in the experiment with MDA-MB-231, > 100 µM (inactive); in the experiment on Malme-3M, > 100 µM (inactive); with NCI-H460, 61.1 µM (inactive); with NCI/ADR-RES, > 100 µM (inactive). Further, the GI50 is 91.6 µM (inactive) in the experiment on RXF 393, > 100 µM (inactive) with SF-295, 89.7 µM (inactive) in the experiment on SK-MEL-28 and 51.5 µM (inactive) with UACC-257.
As for `O=[N+]([O-])c1ccc2c(c1)C(N1CCN(CCO)CC1)Cc1ccc(F)cc1S2` (centres undefined), the GI50 was 12 µM (inactive) in the experiment with 786-0; 11.6 µM (inactive) in the experiment with A498; 3.18 µM (inactive) in the experiment with CCRF-CEM; 5.02 µM (inactive) in the experiment with HL-60; 2.49 µM (inactive) with HT-29; 6.75 µM (inactive) with Hs-578T. The GI50 in the experiment with IGROV-1 was 3.85 µM (inactive); in the experiment on M14, 3.15 µM (inactive); with MCF7 it was 10.1 µM (inactive); with MDA-MB-231 it was 12.9 µM (inactive); with NCI-H460 it was 8.61 µM (inactive); in the experiment on NCI/ADR-RES, 10.3 µM (inactive). For the same compound, the GI50 in the experiment with RXF 393 was < 0.01 µM (active); in the experiment with SF-295, 4.14 µM (inactive); with SK-MEL-28, 1.96 µM (inactive); in the experiment on SNB-75, 2.05 µM (inactive); in the experiment with UACC-257 it was 2.57 µM (inactive).
For `CC1OC(NCCNCCNC2OC(C)C(O)C(O)C2O)C(O)C(O)C1O` (centres undefined), the GI50 in the experiment with 786-0, in the experiment with A498, with HL-60, in the experiment on HOP-92, in the experiment with HT-29 and in the experiment on Hs-578T was > 100 µM (inactive) throughout. Also, the GI50 with IGROV-1, in the experiment on M14, in the experiment on MCF7, with MDA-MB-231, in the experiment on Malme-3M and with NCI-H460 was > 100 µM (inactive) throughout. For the same compound, the GI50 in the experiment with NCI/ADR-RES, in the experiment on RXF 393, in the experiment on SF-295, in the experiment on SK-MEL-28, in the experiment on SNB-75 and in the experiment on UACC-257 was > 100 µM (inactive) each time.
For `CC(=O)CC1(C)OC(N)=C(C#N)C1(C#N)C#N` (centres undefined), the GI50 in the experiment with 786-0 was > 100 µM (inactive); in the experiment with A498 it was > 100 µM (inactive); in the experiment on CCRF-CEM it was 44.7 µM (inactive); in the experiment with HOP-92 it was 74.6 µM (inactive); with HT-29, 88.9 µM (inactive); in the experiment on Hs-578T, > 100 µM (inactive). In addition, the GI50 in the experiment with IGROV-1 is > 100 µM (inactive); in the experiment on M14, > 100 µM (inactive); in the experiment with MCF7, > 100 µM (inactive); in the experiment on MDA-MB-231 it was > 100 µM (inactive); in the experiment with Malme-3M, 80 µM (inactive); in the experiment on NCI/ADR-RES, > 100 µM (inactive). The GI50 in the experiment with RXF 393 is > 100 µM (inactive); with SF-295, > 100 µM (inactive); in the experiment on SK-MEL-28, > 100 µM (inactive); in the experiment with SNB-75, 47 µM (inactive); in the experiment on UACC-257 it was > 100 µM (inactive).
Turning to `CC1=NN(c2nc(N)nc(C(C)Cl)n2)C(C)(C)C1` (centres undefined), the GI50 with 786-0, in the experiment on A498, in the experiment on CCRF-CEM, in the experiment on HL-60, in the experiment on HOP-92 and in the experiment on HT-29 was > 100 µM (inactive) each time. Further, the GI50 in the experiment with Hs-578T, with IGROV-1, in the experiment on M14, in the experiment with MCF7, with MDA-MB-231 and in the experiment on NCI-H460 was > 100 µM (inactive) each time. Moreover, the GI50 in the experiment with NCI/ADR-RES, in the experiment on RXF 393, with SF-295, in the experiment with SK-MEL-28, with SNB-75 and with UACC-257 was > 100 µM (inactive) each time.
Regarding `O=C(NCCN1CCOCC1)c1ccc2cc(C(=O)N3CC(CCl)c4ccc([N+](=O)[O-])cc43)[nH]c2c1` (centres undefined), the GI50 in the experiment on 786-0 is 4.41 µM (inactive); in the experiment with A498, 7.03 µM (inactive); with CCRF-CEM it was 7.82 µM (inactive); with HL-60, 6.14 µM (inactive); in the experiment with HOP-92, 8.24 µM (inactive); with HT-29, 5.14 µM (inactive). Moreover, the GI50 was 4.83 µM (inactive) in the experiment on Hs-578T; 11.5 µM (inactive) with IGROV-1; 7.38 µM (inactive) in the experiment on M14; 17.5 µM (inactive) with MCF7; 15.5 µM (inactive) with MDA-MB-231; 11.4 µM (inactive) in the experiment on NCI-H460. Besides, the GI50 is > 100 µM (inactive) in the experiment on NCI/ADR-RES; 5.01 µM (inactive) with RXF 393; 3.18 µM (inactive) in the experiment on SF-295; 6.62 µM (inactive) in the experiment with SK-MEL-28; 6.7 µM (inactive) with SNB-75; 25 µM (inactive) in the experiment with UACC-257.
Take `COc1cc(Cn2c3c(c4c(C(=O)NCCN(C)C)c(O)ccc42)C(=O)c2ccccc2C3=O)cc(OC)c1`: the GI50 in the experiment with 786-0 is 0.501 µM (active); in the experiment with A498 it was 1.95 µM (inactive); in the experiment with CCRF-CEM, 0.601 µM (active); in the experiment with HL-60 it was 2.04 µM (inactive); with HT-29, 1.87 µM (inactive); in the experiment on Hs-578T it was 1.79 µM (inactive). Also, the GI50 in the experiment on IGROV-1 is 1.73 µM (inactive); in the experiment on M14, 1.73 µM (inactive); in the experiment on MCF7, 2 µM (inactive); in the experiment on MDA-MB-231, 2.1 µM (inactive); in the experiment with Malme-3M, 1.54 µM (inactive); with NCI-H460, 1.79 µM (inactive). Also, the GI50 was 2.32 µM (inactive) in the experiment on NCI/ADR-RES; 1.68 µM (inactive) with RXF 393; 1.92 µM (inactive) in the experiment on SF-295; 1.9 µM (inactive) in the experiment with SK-MEL-28; 1.91 µM (inactive) in the experiment with SNB-75; 1.97 µM (inactive) in the experiment with UACC-257.
Consider `c1ccc2sc(C3(N4CCCCCC4)CCCCC3)cc2c1`, for which the GI50 in the experiment on 786-0 is 19.1 µM (inactive); in the experiment with A498, 18.1 µM (inactive); with CCRF-CEM, 16.7 µM (inactive); in the experiment on HL-60, 24.2 µM (inactive); in the experiment on HOP-92, 17.6 µM (inactive); with HT-29, 15.3 µM (inactive). The GI50 was 22.4 µM (inactive) with Hs-578T; 36.1 µM (inactive) with IGROV-1; 19.3 µM (inactive) with M14; 17.8 µM (inactive) with MCF7; 27.8 µM (inactive) in the experiment with MDA-MB-231; 18.8 µM (inactive) in the experiment on NCI-H460. Besides, the GI50 with NCI/ADR-RES was 21.8 µM (inactive); in the experiment with RXF 393, 17.7 µM (inactive); with SF-295 it was 20.1 µM (inactive); in the experiment with SK-MEL-28, 26.1 µM (inactive); in the experiment with SNB-75 it was 23.8 µM (inactive); with UACC-257 it was 21.5 µM (inactive).
Turning to `C/C=C/c1cc2c(cc1O)CC[C@@H]1[C@@H]2CC[C@]2(C)[C@@H](O)CC[C@@H]12`, the GI50 with 786-0 is 0.053 µM (active); with A498, 0.146 µM (active); in the experiment with CCRF-CEM, 0.0289 µM (active); in the experiment on HL-60, 0.0183 µM (active); in the experiment with HT-29 it was 6.34 µM (inactive); in the experiment with Hs-578T, 0.0653 µM (active). In addition, the GI50 with IGROV-1 was 1.96 µM (inactive); in the experiment on M14, 0.041 µM (active); in the experiment on MCF7, 0.171 µM (active); in the experiment with MDA-MB-231 it was 0.317 µM (active); with Malme-3M, 0.164 µM (active); in the experiment on NCI-H460, 0.0275 µM (active). Moreover, the GI50 in the experiment on NCI/ADR-RES is 0.0246 µM (active); in the experiment with RXF 393, 0.1 µM (active); in the experiment on SF-295, 0.966 µM (active); in the experiment on SK-MEL-28, 1.49 µM (inactive); in the experiment with SNB-75 it was 0.188 µM (active); in the experiment with UACC-257, 0.132 µM (active).
As for `CCCCCC(/C=C/[C@@H]1[C@@H](C(O)CCCCCC(=O)OC)C(=O)C[C@H]1O[Si](C)(C)C(C)(C)C)OCOCCOC` (some centres undefined), the GI50 in the experiment with 786-0 was 15.6 µM (inactive); with A498, 20 µM (inactive); in the experiment on CCRF-CEM, 2.62 µM (inactive); in the experiment with HOP-92, 21 µM (inactive); in the experiment with HT-29 it was 6.7 µM (inactive); in the experiment with Hs-578T, 9.84 µM (inactive). For the same compound, the GI50 with IGROV-1 was 6.28 µM (inactive); in the experiment with M14, 13.8 µM (inactive); in the experiment on MCF7, 4.76 µM (inactive); with MDA-MB-231 it was 21.7 µM (inactive); with Malme-3M, 16.8 µM (inactive); with NCI-H460, 29.7 µM (inactive). In addition, the GI50 is 18.9 µM (inactive) with NCI/ADR-RES; 18.6 µM (inactive) with RXF 393; 17.9 µM (inactive) in the experiment on SF-295; 15.3 µM (inactive) in the experiment on SK-MEL-28; 10.4 µM (inactive) in the experiment with SNB-75; 7.85 µM (inactive) in the experiment on UACC-257.

These data come from ChEMBL document CHEMBL1201862, “PubChem BioAssay data set” (2004).
